SMILES strings stand for the structures. Starred links: 1 amine or outer side, 2 acyl side, 3 side chain; linkers in the order of their positions; H or OH if unused. Positions of bridges follow the written chain, without caps; N, C: chain ends. Non-standard residues stand in square brackets, D forms with d. Residues, ends and D or L forms follow the SMILES beside them. X43 = O=C(CC[S+]([O-])Cc1cc(F)cc(CSCCN[*:1])c1)[*:2]; X18 = O=C([C@@H](Cc1cccc(OCC=[*:3])c1)N[*:1])[*:2]; X25 = O=C([C@H](Cc1cccc(OCC=[*:3])c1)N[*:1])[*:2]; Trp(5-F) = N[C@@H](Cc1c[nH]c2ccc(F)cc12)C(=O)O; X42 = CN([C@@H](CCC=[*:3])C(=O)[*:2])[*:1]; X16 = O=C([C@H](CCCCCC=[*:3])N[*:1])[*:2]; X12 = O=C([C@H](CCCCC=[*:3])N[*:1])[*:2]; X13 = O=C(CCCCc1cccc(CCCCN[*:1])c1)[*:2]; X4 = O=C(CCSCc1cccc(CSCCN[*:1])c1)[*:2]; Hag = O=C([C@H](CCC=[*:3])N[*:1])[*:2]; mXylylene = c1cc(C[*:1])cc(C[*:2])c1; AllylGly = C=CC[C@H](N)C(=O)O; αMeP = C[C@@]1(C(=O)O)CCCN1

One assay deals with PCSK9 (Homo sapiens (Human), UniProt Q8NBP7). The assay can be described thus: PCSK9 Alexa FRET Standard assay (displacement of AlexaFluor647 tagged cyclic peptide Reagent A). The class given is binding. To be noted: PCSK9 Alexa FRET Standard assay, 0.5 nM PCSK9, 20 nM AF cyclic peptide Reagent A; read-out: IC50. The method in brief:
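TR-FRET displacement: 0.5 nM biotinylated PCSK9 with 1.25 nM Strep-Eu and 20 nM AlexaFluor-tagged cyclic peptide (final) in 50 mM HEPES pH 7.4, 0.15 M NaCl, 5 mM CaCl2, 0.01% BSA, 0.01% P20, ≥2 h at room temperature. IC50 from sigmoidal fit, converted to Ki via peptide KD; falling Eu counts flagged false positives.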

Assay [1] deals with human PCSK9 / human LDLR EGFa domain interaction (Homo sapiens (Human), UniProt Q8NBP7). The assay can be described thus: TR-FRET assay of inhibition of the PCSK9-LDLR protein-protein interaction. The class given is binding. Particulars: TR-FRET, 20 nM human PCSK9, 20 nM human LDLR EGFa domain, 2 hours room temperature; read-out: IC50. In short, it runs like this: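 Readout is the TR-FRET signal between europium anti-6×His on his-tagged LDLR EGFa domain and Ulight streptavidin on biotinylated PCSK9, both proteins at 20 nM and both detection reagents at 5 nM. Incubation lasted 2 hours at room temperature; compounds were run in dose-response with a 4-parameter fit.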
human PCSK9 / human LDLR EGFa domain interaction, sequence (Q8NBP7 153-692): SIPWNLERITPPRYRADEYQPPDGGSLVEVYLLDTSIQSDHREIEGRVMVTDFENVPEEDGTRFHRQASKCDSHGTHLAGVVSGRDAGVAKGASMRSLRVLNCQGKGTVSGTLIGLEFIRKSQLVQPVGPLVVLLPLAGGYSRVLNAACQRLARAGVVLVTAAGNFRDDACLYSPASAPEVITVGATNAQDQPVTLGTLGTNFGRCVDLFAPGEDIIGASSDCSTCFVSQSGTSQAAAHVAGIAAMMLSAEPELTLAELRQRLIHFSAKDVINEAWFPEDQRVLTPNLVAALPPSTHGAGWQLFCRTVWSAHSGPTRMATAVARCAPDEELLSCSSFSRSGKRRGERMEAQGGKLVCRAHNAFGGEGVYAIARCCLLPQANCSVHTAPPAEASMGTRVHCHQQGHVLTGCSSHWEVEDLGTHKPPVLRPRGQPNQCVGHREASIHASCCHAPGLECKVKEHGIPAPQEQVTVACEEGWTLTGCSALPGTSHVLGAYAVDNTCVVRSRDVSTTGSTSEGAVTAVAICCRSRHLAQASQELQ
human PCSK9 / human LDLR EGFa domain interaction, sequence (Q8NBP7 31-152 partner): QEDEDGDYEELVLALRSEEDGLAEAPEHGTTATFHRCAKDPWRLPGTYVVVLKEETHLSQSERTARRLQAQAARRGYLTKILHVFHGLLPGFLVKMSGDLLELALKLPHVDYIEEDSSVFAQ
(Time-resolved FRET reads energy transfer from a long-lived donor to a nearby acceptor.)

PCSK9, sequence (Q8NBP7 153-692): as the sequence (Q8NBP7 153-692) above

For orientation: IC50 means the concentration that inhibits the measured activity by half. As to `COc1ccc(C[C@@H]2NC(=O)[C@H]([C@@H](C)O)NC(=O)[C@@H]3CCCC/C=C\CCCC[C@H](NC(=O)[C@@H](C)NC(=O)[C@H](C)NC(=O)CCSCc4cccc(c4)CSCCNC(=O)[C@]4(C)CCCN4C2=O)C(=O)N[C@@H](Cc2c[nH]c4ccc(F)cc24)C(=O)N3)cc1` [Compound 495] (cyclo(A[dA][X12][Trp(5-F)][X12]TY(Me)[αMeP][X4]); staple (Z) 3-5), the figures for the IC50 (on PCSK9; in assay [1]) were 0.11 to 100 nM and 100 to 1000 nM, respectively.

In the case of `COc1ccc(C[C@@H]2NC(=O)[C@H]([C@@H](C)O)NC(=O)[C@@H]3CCCCC/C=C/CC[C@H](NC(=O)[C@@H](C)NC(=O)[C@H](C)NC(=O)CCSCc4cccc(c4)CSCCNC(=O)[C@]4(C)CCCN4C2=O)C(=O)N[C@@H](Cc2c[nH]c4ccc(F)cc24)C(=O)N3)cc1` [Compound 496] (cyclo(A[dA][Hag][Trp(5-F)][X16]TY(Me)[αMeP][X4]); staple (E) 3-5), the IC50 (at PCSK9; in assay [1]) was 100 to 1000 nM throughout.

As to `COc1ccc(C[C@@H]2NC(=O)[C@H]([C@@H](C)O)NC(=O)[C@@H]3CSCc4cccc(c4)CSC[C@H](NC(=O)[C@@H](C)NC(=O)[C@H](C)NC(=O)CCCCc4cccc(c4)CCCCNC(=O)[C@@H]4CCCN4C2=O)C(=O)N[C@@H](Cc2c[nH]c4ccc(F)cc24)C(=O)N3)cc1` [Compound 497] (cyclo(A[dA]C[Trp(5-F)]CTY(Me)P[X13]); linker 3-5 via mXylylene), the concentration for half-maximal inhibition (IC50) (on PCSK9; in assay [1]) was 100 to 1000 nM each time.

Turning to `C[C@@H]1NC(=O)CCSCc2cccc(c2)CSCCNC(=O)[C@]2(C)CCCN2C(=O)[C@H](Cc2ccc(O)cc2)NC(=O)[C@H](C)NC(=O)[C@@H]2C/C=C\COc3cccc(c3)C[C@@H](NC(=O)[C@@H](C)NC1=O)C(=O)N[C@@H](Cc1c[nH]c3ccc(F)cc13)C(=O)N2` [Compound 498] (cyclo(AY[αMeP][X4]A[dA][X18][Trp(5-F)][AllylGly]); staple (Z) 7-9), the IC50 (at PCSK9; in assay [1]) was 1000 to 12100 nM in each case.

`COc1ccc(C[C@@H]2NC(=O)[C@@H]3CCC/C=C\CO[C@H]4C[C@@H](C(=O)N3)N(C4)C(=O)[C@H](Cc3c[nH]c4ccc(F)cc34)NC(=O)[C@H](Cc3c[nH]c4ccc(F)cc34)NC(=O)[C@@H](C)NC(=O)[C@H](CCCCN)NC(=O)CCSCc3cccc(c3)CSC[C@@H](C(N)=O)NC(=O)[C@]3(C)CCCN3C2=O)cc1` [Compound 500]: the IC50 (at PCSK9; in assay [1]) was 1000 to 12100 nM throughout.

With `COc1ccc(C[C@@H]2NC(=O)[C@@H]3CCCCCCO[C@H]4C[C@@H](C(=O)N3)N(C4)C(=O)[C@H](Cc3c[nH]c4ccc(F)cc34)NC(=O)[C@H](Cc3c[nH]c4ccc(F)cc34)NC(=O)[C@@H](C)NC(=O)[C@H](CCCCN)NC(=O)CCSCc3cccc(c3)CSC[C@@H](C(N)=O)NC(=O)[C@]3(C)CCCN3C2=O)cc1` [Compound 506], the IC50 (on PCSK9; in assay [1]) was 100 to 1000 nM in each case.

As to `COc1ccc(C[C@@H]2NC(=O)[C@H]([C@@H](C)OC)NC(=O)[C@@H]3CC/C=C/COc4cccc(c4)C[C@H](NC(=O)[C@@H](C)NC(=O)[C@H](C)NC(=O)CC[S+]([O-])Cc4cc(F)cc(c4)CSCCNC(=O)[C@]4(C)CCCN4C2=O)C(=O)N[C@@H](Cc2c[nH]c4ccc(F)cc24)C(=O)N3C)cc1` (some centres unmarked) [Compound 507] (cyclo(A[dA][X25][Trp(5-F)][X42]T(Me)Y(Me)[αMeP][X43]); staple (E) 3-5), the IC50 at PCSK9 was in the range of 0.11 to 100 nM; in assay [1], 0.1 to 100 nM.

As to `COc1ccc(C[C@@H]2NC(=O)[C@@H]3CC/C=C\CO[C@H]4C[C@@H](C(=O)N3)N(C4)C(=O)[C@H](Cc3c[nH]c4ccc(F)cc34)NC(=O)[C@H](Cc3c[nH]c4ccc(F)cc34)NC(=O)[C@@H](C)NC(=O)[C@H](CCCCN)NC(=O)CCSCc3cccc(c3)CSC[C@@H](C(N)=O)NC(=O)[C@]3(C)CCCN3C2=O)cc1` [Compound 509], the half-maximal inhibitory concentration (IC50) on PCSK9 fell in the range of 0.11 to 100 nM; in assay [1], 100 to 1000 nM.

Take `COc1ccc(C[C@@H]2NC(=O)[C@@H]3CCCCCCCO[C@H]4C[C@@H](C(=O)N3)N(C4)C(=O)[C@H](Cc3c[nH]c4ccc(F)cc34)NC(=O)[C@H](Cc3c[nH]c4ccc(F)cc34)NC(=O)[C@@H](C)NC(=O)[C@H](CCCCN)NC(=O)CCSCc3cccc(c3)CSC[C@@H](C(N)=O)NC(=O)[C@]3(C)CCCN3C2=O)cc1` [Compound 511]: the IC50 lay in the range of 0.11 to 100 nM on PCSK9 and 100 to 1000 nM in assay [1].

As to `COc1ccc(C[C@@H]2NC(=O)[C@@H]3CCC/C=C\CO[C@H]4C[C@@H](C(=O)N3)N(C4)C(=O)[C@H](Cc3c[nH]c4ccc(F)cc34)NC(=O)[C@H](Cc3c[nH]c4ccc(F)cc34)NC(=O)[C@@H](C)NC(=O)CCCCCC(=O)NCc3ccc(cc3)C[C@@H](C(N)=O)NC(=O)[C@]3(C)CCCN3C2=O)cc1` [Compound 512], the concentration for half-maximal inhibition (IC50) at PCSK9 is 0.11 to 100 nM; in assay [1] it was 0.1 to 100 nM.

For the origin of these results see patent US11530244B2, “Cyclic polypeptides for PCSK9 inhibition” (priority 2018, dated 2022).
